The test system of assay [1] is Aβtotal. Description: γ-secretase-modulating activity, Method 2: Aβtotal Alphalisa in supernatant of SKNBE2 cells carrying APP 695-wild type (Table 3b). It counts as cell-based. The conditions noted are these: overnight, read-out: IC50 Aβtot. The gist of the method: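 Secreted Aβtotal was quantified by AlphaLISA pairing an N-terminal antibody (JRF/AβN/25) with biotinylated mid-region 4G8. Wild-type APP 695 SKNBE2 cells received serially varied compound overnight at 37 °C; IC50 came from a 4-parameter nonlinear regression of percent of control against log dose.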
In general terms: Alpha assays give light when donor and acceptor beads are brought close together.

Assay [2] concerns Aβ42. Put plainly: γ-secretase-modulating activity, Method 2: Aβ42 Alphalisa in supernatant of SKNBE2 cells carrying APP 695-wild type (Table 3b). It counts as cell-based. The conditions noted are these: overnight. The gist of the method:
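Aβ42 in the supernatant was quantified by AlphaLISA sandwich (JRF/cAβ42/26 with JRF/AβN/25). Cells were wild-type APP695 SKNBE2, exposed to compound overnight at 37° C., 5% CO2. Data were normalised to untreated maximum and fitted with a four-parameter curve to give IC50.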

Read-outs that look alike come from different tables or passages of the source.

As for `COc1cc(-c2nc(-c3cc(C(F)(F)F)ccc3C)nn2C)ccc1-n1cnc(C)c1` [Compound 296], the IC50 in assay [1] was 6030 nM; in assay [2], 1510 nM.

As for `COc1cc(-c2nc(N3C[C@@H](C)O[C@@H](C)C3)nn2C)ccc1-n1cnc(C)c1` [Compound 64], the IC50 in assay [1] and in assay [2] was above 10000 nM each time.

For the molecule `COc1cc(-c2nc(N3CCc4ccccc4C3)n(C(C)C)n2)ccc1-n1cnc(C)c1` [Compound 82], the IC50 in assay [1] was 7760 nM; in assay [2], 603 nM.

As for `COc1cc(-c2nc(Nc3cccc(Cl)c3)n(C)n2)ccc1-n1cnc(C)c1` [Compound 103], the figures for the IC50 in assay [1] and in assay [2] were 6310 nM and 36 nM, respectively.

With `COc1cc(-c2nc3n(n2)CCC[C@@H]3c2ccc(F)cc2C)ccc1-n1cnc(C)c1` [Compound 332], the figures for the IC50 in assay [1] and in assay [2] were above 10000 nM and 234 nM, respectively.

For `COc1cc(-c2nc(Nc3cc(F)ccc3F)n(C)n2)ccc1-n1cnc(C)c1` [Compound 110], the figures for the IC50 in assay [1] and in assay [2] were above 10000 nM and 91 nM, respectively.

On to `COc1cc(-c2nc(-c3ccc(-n4cnc(C)c4)c(OC)c3)n(C)n2)ccc1Cl` [Compound 58], for which the IC50 in assay [1] and in assay [2] was above 10000 nM in each case.

Turning to `CCn1nc(-c2ccc(-n3cnc(C)c3)c(OC)c2)nc1Nc1ccccc1C(F)(F)F` [Compound 147], the results for the IC50 in assay [1] and in assay [2] were above 10000 nM and 41 nM, respectively.

As for `COc1nc(-c2nc3n(n2)CCCC3c2ccc(F)cc2C)ccc1-n1cnc(C)c1` (stereo not drawn) [Compound 313], the IC50 in assay [1] is above 10000 nM; in assay [2], 68 nM.

With `COc1cccc(-c2nc(-c3ccc(-n4cnc(C)c4)c(OC)c3)n(C)n2)c1` [Compound 56], the IC50 in assay [1] and in assay [2] was above 10000 nM in each case.

For the molecule `COc1cc(-c2nc(Nc3cc(F)c(F)cc3C(F)(F)F)n(C)n2)ccc1-n1cnc(C)c1` [Compound 142], the values for the IC50 in assay [1] and in assay [2] were above 10000 nM and 59 nM, respectively.

`COc1cc(-c2nc(N3CCC(c4ccccc4)CC3)n(C)n2)ccc1-n1cnc(C)c1` [Compound 77]: the values for the IC50 in assay [1] and in assay [2] were 8320 nM and 145 nM, respectively.

Turning to `COc1cc(-c2nc(Nc3cccc(F)c3OC)n(C)n2)ccc1-n1cnc(C)c1` [Compound 219], the IC50 was above 10000 nM in assay [1] and 91 nM in assay [2].

As to `COc1cc(-c2nc(N[C@@H](C)c3ccc(F)cc3)n(C)n2)ccc1-n1cnc(C)c1` [Compound 51], the half-inhibitory concentration (IC50) in assay [1] was above 10000 nM; in assay [2], 324 nM.

Turning to `COc1cc(-c2nc(Nc3ccnc(C)c3)n(C)n2)ccc1-n1cnc(C)c1` [Compound 239], the half-maximal inhibitory concentration (IC50) was above 10000 nM in assay [1] and 4470 nM in assay [2].

For `Cc1cn(-c2ccc(-c3nc(Nc4cc(C(F)(F)F)ccc4F)n(C)n3)nc2C)cn1` [Compound 319], the figures for the 50% inhibitory concentration (IC50) in assay [1] and in assay [2] were above 10000 nM and 490 nM, respectively.

As to `COc1cc(-c2nc(Nc3ccccc3Cl)n(C)n2)ccc1-n1cnc(C)c1` [Compound 101], the IC50 was above 10000 nM in assay [1] and 41 nM in assay [2].

`COc1cc(Nc2nc(-c3ccc(-n4cnc(C)c4)c(OC)c3)nn2C)c(F)c(C(F)(F)F)c1` [Compound 202]: the IC50 in assay [1] was above 10000 nM; in assay [2], 25 nM.

Turning to `COc1cc(-c2nc(Nc3cccnc3)n(C)n2)ccc1-n1cnc(C)c1` [Compound 237], the half-inhibitory concentration (IC50) in assay [1] is above 10000 nM; in assay [2], 3160 nM.

For `COc1cc(-c2nc(Nc3ccc(Cl)cc3)n(C)n2)ccc1-n1cnc(C)c1` [Compound 108], the 50% inhibitory concentration (IC50) in assay [1] is 7760 nM; in assay [2], 151 nM.

With `COc1cc(-c2nc(Nc3cccn(C)c3=O)n(C)n2)ccc1-n1cnc(C)c1` [Compound 243], the IC50 in assay [1] is above 10000 nM; in assay [2] it was 8320 nM.

For `COc1cc(-c2nc3n(n2)CCC[C@@H]3c2ccccc2Cl)ccc1-n1cnc(C)c1` [Compound 254], the values for the 50% inhibitory concentration (IC50) in assay [1] and in assay [2] were above 10000 nM and 234 nM, respectively.

Consider `Cc1cn(-c2ccc(-c3nc(Nc4ccc(F)cc4C(F)(F)F)n(C)n3)nc2)cn1` [Compound 170], for which the IC50 in assay [1] is above 10000 nM; in assay [2] it was 3240 nM.

Turning to `COc1cc(-c2nc(N3CCCc4ccccc43)n(C)n2)ccc1-n1cnc(C)c1` [Compound 349], the IC50 is above 10000 nM in assay [1] and 257 nM in assay [2].

For the molecule `COc1cc(-c2nc(Nc3cc(C(F)(F)F)ccc3F)n(C(C)C)n2)ccc1-n1cnc(C)c1` [Compound 178], the values for the IC50 in assay [1] and in assay [2] were 7940 nM and 21 nM, respectively.

Regarding `COc1nc(-c2nc3n(n2)CCCC3c2ccc(F)cc2)ccc1-n1cnc(C)c1` (stereo not drawn) [Compound 253], the IC50 is above 10000 nM in assay [1] and 170 nM in assay [2].

For the molecule `COc1cc(-c2nc(Nc3c(F)ccc(Cl)c3F)n(C)n2)ccc1-n1cnc(C)c1` [Compound 122], the IC50 in assay [1] is above 15000 nM; in assay [2], 66 nM.

As to `COc1cc(-c2nc(C3(c4ccc(F)cc4)CC3)n(C)n2)ccc1-n1cnc(C)c1` [Compound 47], the IC50 in assay [1] amounted to 3240 nM; in assay [2] it was 302 nM.

For `COc1cc(-c2nc(Nc3cccc(F)c3F)n(C)n2)ccc1-n1cnc(C)c1` [Compound 124], the IC50 in assay [1] is above 10000 nM; in assay [2] it was 151 nM.

Regarding `COc1cc(-c2nc3n(n2)CCCCC3c2ccccc2C(F)(F)F)ccc1-n1cnc(C)c1` (stereo not drawn) [Compound 283], the IC50 is 7940 nM in assay [1] and 78 nM in assay [2].

Regarding `COc1cc(-c2nc3n(n2)CCCC3c2c(F)cc(F)cc2F)ccc1-n1cnc(C)c1` (stereo not drawn) [Compound 312], the results for the IC50 in assay [1] and in assay [2] were above 10000 nM and 123 nM, respectively.

In the case of `COc1cc(-c2nc(Nc3ncccc3C(F)(F)F)n(C)n2)ccc1-n1cnc(C)c1` [Compound 240], the figures for the IC50 in assay [1] and in assay [2] were above 10000 nM and 794 nM, respectively.

With `COc1nc(-c2nc3n(n2)CCC[C@@H]3c2ccccc2C(F)(F)F)ccc1-n1cnc(C)c1` [Compound 262], the results for the IC50 in assay [1] and in assay [2] were above 10000 nM and 324 nM, respectively.

Take `COc1cc(-c2nc(Nc3cccc(C#N)c3F)n(C)n2)ccc1-n1cnc(C)c1` [Compound 229]: the results for the IC50 in assay [1] and in assay [2] were above 10000 nM and 295 nM, respectively.

Regarding `COc1cc(-c2nc(-c3cc(Cl)ccc3C)n(C)n2)ccc1-n1cnc(C)c1` [Compound 88], the IC50 in assay [1] is above 10000 nM; in assay [2], 209 nM.

Turning to `COc1cc(-c2nc(N3CCCC(c4ccccc4)C3)n(C)n2)ccc1-n1cnc(C)c1` (racemic) [Compound 78], the values for the IC50 in assay [1] and in assay [2] were 8510 nM and 50 nM, respectively.

`COc1cc(-c2nc(-c3ccc(-n4cnc(C)c4)c(OC)c3)nn2C)ccc1Cl` [Compound 43]: the IC50 in assay [1] was above 10000 nM; in assay [2], 148 nM.

As to `COc1cc(-c2nc3n(n2)CCCC3c2ccccc2Cl)ccc1-n1cnc(C)c1` (stereo not drawn) [Compound 256], the values for the IC50 in assay [1] and in assay [2] were above 10000 nM and 21 nM, respectively.

Turning to `COc1cc(-c2nc3n(n2)CCOC3c2ccc(F)cc2F)ccc1-n1cnc(C)c1` (stereo not drawn) [Compound 282], the IC50 in assay [1] was above 10000 nM; in assay [2], 380 nM.

For the molecule `COc1cccc(-c2n[nH]c(-c3ccc(-n4cnc(C)c4)c(OC)c3)n2)c1` [Compound 55], the IC50 in assay [1] is above 10000 nM; in assay [2], 234 nM.

Take `COc1cc(-c2nc(Nc3ccc(F)cc3C#N)n(C)n2)ccc1-n1cnc(C)c1` [Compound 228]: the IC50 in assay [1] was above 10000 nM; in assay [2], 4470 nM.

With `COc1cc(-c2nc(Nc3cc(F)c(F)cc3I)n(C)n2)ccc1-n1cnc(C)c1` [Compound 120], the values for the IC50 in assay [1] and in assay [2] were above 10000 nM and 123 nM, respectively.

Take `COc1cc(-c2nc(C3(c4cc(C(F)(F)F)ccc4F)CC3)n(C)n2)ccc1-n1cnc(C)c1` [Compound 90]: the IC50 in assay [1] was 8910 nM; in assay [2], 562 nM.

Turning to `COc1cc(-c2nc(C3(c4ccc(F)cc4)CC3)nn2C)ccc1-n1cnc(C)c1` [Compound 60], the IC50 in assay [1] was above 10000 nM; in assay [2], 8510 nM.

For the molecule `CCC(C)n1nc(-c2ccc(-n3cnc(C)c3)c(OC)c2)nc1Nc1cc(C(F)(F)F)ccc1F` (racemic) [Compound 179], the IC50 in assay [1] is 5010 nM; in assay [2], 19 nM.

On to `COc1cc(-c2nc(Nc3c(F)ccc(OC)c3F)n(C)n2)ccc1-n1cnc(C)c1` [Compound 196], for which the IC50 in assay [1] was above 10000 nM; in assay [2] it was 129 nM.

Take `COc1cc(-c2nc(Nc3cc(F)ccc3C(F)(F)F)n(C)n2)ccc1-n1cnc(C)c1` [Compound 168]: the IC50 is above 10000 nM in assay [1] and 71 nM in assay [2].

In the case of `COc1cc(-c2nc(C(C)(C)O)n(C(C)c3ccc(F)cc3)n2)ccc1-n1cnc(C)c1` (racemic) [Compound 300], the IC50 was above 10000 nM in assay [1] and 871 nM in assay [2].

Regarding `COc1cc(-c2nc(Nc3cccnc3C(F)(F)F)n(C)n2)ccc1-n1cnc(C)c1` [Compound 233], the figures for the IC50 in assay [1] and in assay [2] were above 10000 nM and 603 nM, respectively.

In the case of `COc1cc(-c2nc(-c3ccc(F)cc3)n(C(C)C)n2)ccc1-n1cnc(C)c1` [Compound 83], the IC50 in assay [1] is above 10000 nM; in assay [2] it was 257 nM.

`COc1cc(-c2nc(Nc3ccc(F)c(F)c3)n(C)n2)ccc1-n1cnc(C)c1` [Compound 112]: the 50% inhibitory concentration (IC50) worked out at 9120 nM in assay [1] and 129 nM in assay [2].

`COc1cc(-c2nc(Nc3cc(C(F)(F)F)ccc3F)n(C)n2)ccc1-n1ccnc1` [Compound 359]: the IC50 was above 10000 nM in assay [1] (Homo sapiens) and 95 nM in assay [2] (Homo sapiens).

Regarding `COc1cc(-c2nc(N3CCCC(C(F)(F)F)C3)n(C(C)C)n2)ccc1-n1cnc(C)c1` (racemic) [Compound 75], the half-inhibitory concentration (IC50) turned out to be 6460 nM in assay [1] and 676 nM in assay [2].

Turning to `COc1cc(Nc2nc(-c3ccc(-n4cnc(C)c4)c(OC)c3)nn2C)ccc1F` [Compound 193], the values for the IC50 in assay [1] and in assay [2] were above 10000 nM and 63 nM, respectively.

The term IC50 denotes the concentration that gives 50% inhibition.

Source of the values: patent US8946266B2, “Substituted triazole and imidazole derivatives as gamma secretase modulators” (Janssen Pharmaceuticals, Inc., priority 2009, dated 2015).
